Assay results reported in patent US20260294864A1, “PHARMACEUTICAL COMPOSITION FOR THE TREATMENT AND PREVENTION OF HPV” (NP1 SRL, priority 2022, published 2026).

How the values were obtained:
Format in all cases: cell-based, human
[1] = test system: HeLa cells; experiment: Anti-clonogenic activity on HeLa cells (plating efficiency assay / live cell imaging); conditions: for clonal inhibition in combination with Apigenin: 50 μM combined with Apigenin 25 μM; for clonal inhibition in combination with Apigenin / end point clonal assay, clonal inhibition alone: FIG. 9-11; for clonal inhibition in combination with Chrysin: 50 μM combined with Chrysin 25 μM; for clonal inhibition in combination with Chrysin / synergy with Galangine, Apigenin and Chrysin: FIG. 10-11; for end point clonal assay, clonal inhibition alone / Anti-clonal effect: 50 μM; for end point clonal assay, clonal inhibition alone: administered alone; for Anti-clonal effect: isolated, FIG. 1
Protocol: Panel C and D: diagrammatic topographical maps of treatments and growth conditions on plates A and B respectively.
Panel A. Hela cells were challenged with serial twofold dilutions of 50 μM Luteolin (in columns 1-6) and 100 μM Galangin (columns 7-10). Hela control untreated cells in columns 11-12.
(§1) A total of 6 cell lines, outlined in Table 3, were used for this study. The cell lines were obtained from Research Centres of cell biology in Italy, United Kingdom and Germany. This research raised no ethical concern being based on entirely in vitro experiments using no patients' derived information or material. In compliance with National and International ethical rules, no informed consent is needed.
(§2) HeLa cells are the oldest continuous cell lines and were originally derived from a HPV18 positive metastatic cervical carcinoma (Scherer W F et al 1953). Siha cells are an epithelioid like cell line derived from a HPV16-positive invasive cervical squamous carcinoma (Friedel F et al 1970). Ca-Ski cells are a line harboring multiple copy of transcriptionally active HPV16 genomes (Baker C C et al 1984). Both Hela and Siha were a kind gift of prof MS Campo, The Beatson Institute for Cancer Research, Glasgow, Scotland. These two cell lines because of their versatility and ease of use were used for most of experiments reported. Ca-Ski cells were obtained through the courtesy of prof. Matthias Durst, at the Deutsch Krebsforschungzentrum—Heidelberg, FRG. These cells used together with Siha provide a model for the genetic instability and variability of cervical cancers. HK-168 is an immortalized, non-tumorigenic, continuous cell line derived from human skin keratinocytes in vitro transformed with whole HPV16 genome (De Marco F et al 2007). This cell line is reputed to recapitulate le biological features of transformed dysplastic cells and was used in preliminary experiments to set the experimental dosages and conditions. The ME-180 cells are a cell line harboring a few, transcriptionally active, copies of HPV68 and provide an in vitro model for dysplastic/neoplastic lesions induced by HPV with Intermediate oncogenic Risk (Yee C C et al 1985). The HaCaT cells, derived from a solar skin lesion by Petra Boukamp et al (1988) are here used as an in vitro equivalent of Ultra-Violet induced pre-neoplastic epithelial cells to rule out possible direct toxic effects of polyphenols. Both HaCaT and ME-180, were kindly donated by Prof. Matthias Durst. Hela, Siha, Ca-Ski, ME-180 and HaCaT were all grown in high glucose DMEM supplemented with 10% fetal calf serum (FCS). The HK-168 cells, which retained the ability to terminally differentiate under high Ca^2+ and FCS concentrations, were grown in K-SFM, a chemically defined medium supplemented with human EGF and bovine pituitary extract (ThermoFisher Scientific, Life Technologies, Monza—MI). Each cell line was sub-cultured twice a week at the appropriate split ratio according to the specific proliferative index. In no case antibiotics or antimycotics were added to the culture media. For the present study, all cell lines were retrieved from an in-house cell archive facility.
The anti-clonogenic activity was evaluated both by the current standard qualitative plating efficiency assay and by quantitative live cell imaging analysis ([…] S3 Live Cell Analysis Imaging System—Sartorius Welwyn Garden City, Hertfordshire, UK).

[2] = test system: HPV transformed cells; experiment: Anti-clonal effect on HPV transformed cells (cell line not stated); conditions: for clonal inhibition in combination / anticlonogenic / anti-clonal effect: summary statement; for anticlonogenic / anti-clonal effect / IC50 / IRR (inhibitory relative rate): isolated compound; for IC50: Homo sapiens, minimal concentration reducing 50% of CFU of treated versus control, read-out: CID50 (50% clonal inhibitory dose), isolated polyphenols; for IRR (inhibitory relative rate): reverse ratio of CID50 to the reference CID50 of Quercetin (=1)
Protocol: The inhibitory relative rate (IRR) (fourth column) provides an efficacy ranking of molecules.
The anti-clonogenic activity was evaluated both by the current standard qualitative plating efficiency assay and by quantitative live cell imaging analysis (INCUCYTE S3 Live Cell Analysis Imaging System—Sartorius Welwyn Garden City, Hertfordshire, UK). For qualitative plating efficiency assay cells were seeded at ‘clonal’ density (i.e., 0.5 cell/mm^2) either in medium containing the testing molecules or with plain medium and incubated without any further manipulation. After 9-14 days, according to the cell line specific proliferative index, the cultures were decanted and stained with 0.2% CV/methanol for 5 min at room temperature. All conditions were tested in triplicates in a 6-well culture plate. The anti-clonogenic activity of the treatments was evaluated using the colony forming units (CFU) of treated versus control cultures. The minimal concentration which could reduce 50% of the CFU of treated versus control culture was defined as colony-forming Inhibitory concentration (CID50). For quantitative evaluation cells were seeded in 96-well microplates at the above density and condition and allowed to grow the subsequent 8-day incubation in the INCUCYTE S3 Imaging System. Images were acquired at 12-hours intervals and colony formation and percentage of growth area covered (confluency) were then monitored through automated image analysis. The analysis parameters were as follows: segmentation adjustment=0.4; hole fill <5,000 μm^2; adjusted pixel=−2.

[3] = test system: Siha cells; experiment: Anti-clonogenic activity on SiHa cells (plating efficiency assay / live cell imaging); conditions: for end-point anti-clonal effect versus control untreated cells: 25.0 μM, FIG. 6-8
Protocol: In this experiment Kaempferol and Apigenin were administered to Siha cells at decremental concentrations, either in combination or alone, as shown in the topographical map (in panel C). […] Histograms in Panel B depict the number of colonies per well as evaluated by visual inspection and count.
The Histograms in Panel B depict the number of colonies per well as evaluated by visual inspection and count. • In Panel C a topographical map of plate treatments. Each condition was assayed in duplicate.
Kaempferol, Galangin, Luteolin and their combination were administered to SiHa cells at the concentrations of 25 μM each and of 12,5/12,5/6,25 μM for their combination. Treatments were allowed to stay on cells either for 2 or 4/8/16/24 hours. After that, treatments were washed out, cells washed two times with PBS, replenished with fresh medium and the anti-clonal effect was then monitored by live cell image analysis.
as §1, §2

[4] = test system: Siha cells; experiment: Antiproliferative effect on Siha cells, live cell analysis; conditions: Siha 1000 cells/well
Protocol: FIG. 2: live cell analysis of RNPs antiproliferative effect. Siha cells were seeded at 1000 cells/well in a 96 well plate and allowed to adhere overnight. The plate was then washed twice with PBS and replenished with 100 microliter/well fresh medium plus 50 μM of each compound. Images were taken every 12 hours; Growth curves were drawn plotting the percentage of confluence versus time. […] In fact, their growth curves outline a single spindle completely overlapping and masking the one of control untreated cells. Conversely, a distinct anti-proliferative effect is evident in panel B- where the growth curves of RNP 9 Kaempferol (solid squares), RNP 12 Luteolin (solid diamonds), RNP 16 Apigenin (solid circles) and control untreated cells (solid stars) are depicted. […] Each point represents the mean of six independent replicas. Bar width represents the Standard Deviation (SD). Consistent results were also obtained by HeLa and ME-180 cells
(§3) For antiproliferative effect cells were seeded in 96-well microplates at 1000 cells/per well (i.e.: 30 cell/mm^2), a density allowing exponential growth rate for the subsequent 8-day incubation. After overnight adhesion cell monolayers were washed and replenished with fresh media with different testing molecules, plain medium served as cell growth control.
(§4) Cell growth was then monitored by automated INCUCTE S3 imaging Systems. Images were acquired at 12-hours intervals. The analysis parameters were as follows: segmentation adjustment=0.9; hole fill <7,000 μm^2; adjusted pixel=0.
Data for growth curves, anti-clonal and Antiproliferative assays were obtained from at least three independent experiments. Each data point of quantitative anti-proliferative or anti-clonal experiments represents the mean (±SD) of eight independent replicates. Data were analyzed and plotted using Prism 6.0 software (GraphPad Software, San Diego, CA).

[5] = test system: HPV transformed cells; experiment: Antiproliferative effect on HPV transformed cells (cell line not stated); conditions: summary statement, isolated compound
Protocol: as §3, §4

[6] = 50 μM combined with Galangin 25 μM, HeLa, FIG. 11
[7] = combined with Galangin, Chrysin or Apigenin

SMILES | clonal inhibition in combination with Apigenin ([1]; HeLa) | end point clonal assay, clonal inhibition alone ([1]; HeLa) | Anti-clonal effect ([1]; HeLa) | anticlonogenic / anti-clonal effect [2] | IC50 [2] [µM] | other results
O=C(O)c1ccc(O)c(O)c1 [Protocatechuic acid] | almost complete clonal inhibition | neither of them induced any effect | devoid of any significant anticlonogenic effect | devoid of. any direct anticlonogenic activity |  | clonal inhibition in combination with Chrysin ([1]; HeLa): almost complete clonal inhibition; clonal inhibition in combination with Galangin [1, 6]: almost complete clonal inhibition; synergy with Galangine, Apigenin and Chrysin ([1]; in association, HeLa): synergize; clonal inhibition in combination [2, 7]: a certain grade of clonal inhibition
O=C(O)c1ccccc1 [Benzoic acid] | almost complete clonal inhibition | neither of them induced any effect | devoid of any significant anticlonogenic effect | devoid of. any direct anticlonogenic activity |  | clonal inhibition in combination with Chrysin ([1]; HeLa): almost complete clonal inhibition; clonal inhibition in combination with Galangin [1, 6]: almost complete clonal inhibition; synergy with Galangine, Apigenin and Chrysin ([1]; in association, HeLa): synergize; clonal inhibition in combination [2, 7]: a certain grade of clonal inhibition
O=C(/C=C/c1ccc(O)c(O)c1)O[C@@H]1C[C@](O)(C(=O)O)C[C@@H](O)[C@H]1O [Chlorogenic acid] | almost complete clonal inhibition | neither of them induced any effect | devoid of any significant anticlonogenic effect | devoid of. any direct anticlonogenic activity |  | clonal inhibition in combination with Chrysin ([1]; HeLa): almost complete clonal inhibition; clonal inhibition in combination with Galangin [1, 6]: almost complete clonal inhibition; synergy with Galangine, Apigenin and Chrysin ([1]; in association, HeLa): synergize; clonal inhibition in combination [2, 7]: a certain grade of clonal inhibition
COc1cc(C(=O)O)ccc1O [Vanillic acid] | almost complete clonal inhibition | neither of them induced any effect | devoid of any significant anticlonogenic effect | devoid of any direct activity |  | clonal inhibition in combination with Galangin ([1]; 50 μM combined with Galangin 12.5 μM, HeLa, FIG. 9-10): almost complete clonal inhibition; synergistic effect with Galangine and Apigenin ([1]; in association, HeLa, FIG. 9): synergistic effect; clonal inhibition in combination ([2]; combined with Galangin or Quercetin): a certain grade of clonal inhibition; anticlonogenic / anti-clonal effect ([2]; listed as Vanillic): devoid of. any direct anticlonogenic activity
O=C1c2c(O)cc(O)cc2O[C@H](c2ccccc2)[C@H]1O [Pinobanksin] |  |  | No effect |  |  | 
O=c1cc(-c2ccc(O)cc2)oc2cc(O)cc(O)c12 [Apigenin] |  |  | almost complete suppression of clonal activity | fair anti-clonal effect, although milder | 25 | clonal efficiency versus control untreated cells ([3]; 12.5 μM, alone, Siha, FIG. 4): no difference to control untreated cells; end-point anti-clonal effect versus control untreated cells ([3]; alone, SiHa): no difference to control untreated cells; IRR (inhibitory relative rate) [2]: 2; antiproliferative effect ([4]; 50 μM, FIG. 2): distinct, although milder effect; inhibition at 50 µM ([4]; Homo sapiens, FIG. 2, read-out: suppression of proliferation): ~20%
O=c1c(O)c(-c2ccc(O)c(O)c2)oc2cc(O)cc(O)c12 [Quercetin] |  |  | almost complete suppression of clonal activity | fair anti-clonal effect, although milder | 50 | 
C[C@@H]1O[C@@H](OC[C@H]2O[C@@H](Oc3c(-c4ccc(O)c(O)c4)oc4cc(O)cc(O)c4c3=O)[C@H](O)[C@@H](O)[C@@H]2O)[C@H](O)[C@H](O)[C@H]1O [Rutin] |  |  | No effect |  |  | 
O=C1C[C@@H](c2ccccc2)Oc2cc(O)cc(O)c21 [Pinocembrin] |  |  | devoid of any significant anticlonogenic effect |  |  | 
O=c1c(O)c(-c2ccccc2)oc2cc(O)cc(O)c12 [Galangin] |  |  | almost complete suppression of clonal activity | sharp anticlonogenic and antiproliferative effect | 25 | anti-clonal effect at concentrations above CID50 ([1]; higher concentrations than CID50, HeLa, FIG. 3): completely suppressive; end-point anti-clonal effect versus control untreated cells ([3]; alone, SiHa): no difference to control untreated cells; inhibition at 25 µM ([3]; Homo sapiens, 25 μM, single compound, 24 hours treatment then wash-out, SiHa, FIG. 12, read-out: clonal inhibition): ~50%; IRR (inhibitory relative rate) [2]: 2; antiproliferative effect [5]: sharp anticlonogenic and antiproliferative effect
O=c1cc(-c2ccccc2)oc2cc(O)cc(O)c12 [Chrysin] |  |  | almost complete suppression of clonal activity | fair anti-clonal effect, although milder | 25 | IRR (inhibitory relative rate) [2]: 2
